Measured values reported in US11851410B2, “Sensors for detection of negatively charged phosphate-containing membranes and membrane components” (THE GOVERNING COUNCIL OF THE UNIVERSITY OF TORONTO, priority 2017, dated 2023).

Assays:
[1] = system: POPE (PE) zwitterionic vesicles; experiment: Serial dilution vesicle fluorescence intensity experiments, PE vesicles; type: binding; details: sensor 25 μM (PSVue™380 1 μM), 50 mM HEPES, 5% DMSO, pH 7.5
From the text: (§1) The following equations were used for the calculations: […]

[2] = system: POPG (PG) negatively charged vesicles; experiment: Serial dilution vesicle fluorescence intensity experiments, PG vesicles; type: binding; details: sensor 25 μM (PSVue™380 1 μM), 50 mM HEPES, 5% DMSO, pH 7.5
From the text: as §1

[3] = system: TOCL (CL) negatively charged vesicles; experiment: Serial dilution vesicle fluorescence intensity experiments, CL vesicles; type: binding; design: ΔΔFI: unit not given here; details: sensor 25 μM (PSVue™380 1 μM), 50 mM HEPES, 5% DMSO, pH 7.5
From the text: as §1

[4] = system: DOPS (PS) negatively charged vesicles; experiment: Serial dilution vesicle fluorescence intensity experiments, PS vesicles; type: binding; design: ΔΔFI: unit not given here; details: for ΔΔFI: sensor 25 μM (PSVue™380 1 μM), 50 mM HEPES, 5% DMSO, pH 7.5
From the text: as §1
It is estimated that a mammalian cell membrane is composed of 10% PS, with the majority located on the inner leaflet in the healthy state. However, during the early stages of apoptosis, this asymmetry is lost and PS becomes symmetrically distributed resulting in ˜5% of PS externalized to the outer leaflet. To address if compounds of this application could potentially be used for the detection of the PS externalization event during apoptosis, the exemplary sensors were screened against PC vesicles containing biologically-relevant levels of PS ([…]; assuming that approximately half of the lipid head groups will be exposed to the interior of the vesicle). The resulting ΔΔFI for vesicle concentrations up to 40 μM are presented in FIG. 7 and Table 1 (ΔΔFI for vesicle concentrations up to 200 μM is presented in FIG. 4).

[5] = system: POPA (PA) negatively charged vesicles; experiment: Serial dilution vesicle fluorescence intensity experiments, PA vesicles; type: binding; details: for ΔΔFI: PA vesicles, sensor 25 μM (PSVue™380 1 μM), 50 mM HEPES, 5% DMSO, pH 7.5
From the text: as §1

[6] = system: negatively charged vesicles (PA, PS, PG, CL); experiment: Vesicle fluorescence intensity experiments, all negatively charged vesicles; type: binding
Experimental: (§2) Small Unilamellar Vesicles (SUVs) were prepared by the extrusion method. Appropriate amounts of lipid in the desired proportions were weighed out to create 10 mM liposome suspensions. The lipids were then dissolved in a minimum amount of chloroform and vortexed to ensure thorough mixing. The excess solvent was then dried off under a gentle stream of nitrogen and allowed to dry overnight in a vacuum dessicator to remove any remaining traces of solvent. The resulting lipid film was then hydrated with 2 mL of HEPES buffer (50 mM HEPES, pH 7.5) for 1 h. The sample was then subjected to five cycles of freeze-thaw-vortex, cycling between liquid nitrogen and a 60° C. water bath. The resulting suspension of multilamellar vesicles (MLVs) was then extruded 25 times through a 0.1 μm polycarbonate membrane installed in a mini-extruder (Avanti Polar Lipids, Alabaster, AL) to form SUV.
10 mM stock solutions of vesicles were diluted separately to 400 μM and 80 μM in pH 7.5, 50 mM HEPES buffer. […] The sensors were dissolved to a concentration of 50 μM (from 800 μM stock solutions in 100% DMSO) in 50 mM HEPES, pH 7.5, 10% DMSO buffer. […] Fluorescence intensities measured were used to calculate the following parameters: ΔFIexc, ΔΔFIexc, ΔFImon, ΔΔFImon, ΔΔFIexc/mon and ΔΔΔFI. The following equations were used for the calculations: […]
Of these, PC and PE represented the zwitterionic vesicles; PS (−1), PA (−1), PG (−1) and CL (−2) represented the negatively charged vesicles.
(§3) The fluorescence enhancement of the excimer (ΔFIexc) species in the presence of vesicles was calculated using equation 1, which is defined as the ratio of the emission intensities of the sensor-vesicle sample and the sensor alone.

[7] = system: zwitterionic vesicles (PC, PE); experiment: Vesicle fluorescence intensity experiments, zwitterionic vesicles; type: binding; details: sensor 25 μM; vesicles up to 200 μM; λex/em 350/476 nm
Experimental: as §2
10 mM stock solutions of vesicles were diluted separately to 400 μM and 80 μM in pH 7.5, 50 mM HEPES buffer. […] Fluorescence intensities measured were used to calculate the following parameters: ΔFIexc, ΔΔFIexc, ΔFImon, ΔΔFImon, ΔΔFIexc/mon and ΔΔΔFI. […]
as §3

[8] = system: E. coli K-12 BW25113 cells; experiment: Proof-of-concept E. coli titration (fluorometry); type: cell-based; details: sensor 10 μM; 50 mM HEPES, 75 mM NaCl, 1% BSA, 0.4% DMSO, pH 7.5
[9] = system: Gram-positive bacteria (B. subtilis, B. megaterium, M. luteus, S. epidermidis); details: sensor 10 μM; λex/em 350/476 nm
Experimental: Bacteria samples were titrated from 10^8-10^10 cells/mL in a large-volume 12 well plate. Bacteria samples were added to black 384-well plates in triplicate.

[10] = system: E. coli K-12 BW25113 cells; details: 40 μM sensor; 10^7-10^8 CFU/mL
Experimental: E. coli K-12 BW25113 cells were grown overnight in M9 minimal media and then harvested the following morning. Cells were then washed (spun at 5000 rpm for 10 min/wash) three times in buffer (50 mM HEPES, 75 mM NaCl, 1% BSA, 0.4% DMSO, pH 7.5). Cell concentrations were then determined using OD600 and cell samples were diluted to the appropriate concentrations.
Samples were run at the Flow Cytometry Facility, Medical Sciences Building, University of Toronto, on a BD LSR Fortessa X20 using the UV laser (emission: 450/50 nm) with low flow rate (15 uL sample/min) for 2 min.
Sample run using UV laser (BD LSR Fortessa X20, emission: 450/50 nm) in 50 mM HEPES, 75 mM NaCl, 1% BSA, 0.4% DMSO, pH 7.5. […] Sample run using UV laser (BD LSR Fortessa X20, emission: 450/50 nm) in 50 mM HEPES, 75 mM NaCl, 1% BSA, 0.4% DMSO, pH 7.5. […] Sample run using UV laser (BD LSR Fortessa X20, emission: 450/50 nm) in 50 mM HEPES, 75 mM NaCl, 1% BSA, 0.4% DMSO, pH 7.5. […] Sample run using UV laser (BD LSR Fortessa X20, emission: 450/50 nm) in 50 mM HEPES, 75 mM NaCl, 1% BSA, 0.4% DMSO, pH 7.5. […] Sample run using UV laser (BD LSR Fortessa X20, emission: 450/50 nm) in 50 mM HEPES, 75 mM NaCl, 1% BSA, 0.4% DMSO, pH 7.5.

[11] = system: DOPS (PS) negatively charged vesicles; experiment: Serial dilution vesicle fluorescence intensity experiments, PS vesicles; type: binding; design: ΔΔFI: unit not given here; details: for ΔΔFI: sensor 25 μM (PSVue™380 1 μM), 50 mM HEPES, 5% DMSO, pH 7.5; remark: listed apart in the source
PA vesicles = experiment: Zinc metalation fluorescence experiments; type: binding
Experimental: Vesicle fluorescence intensity experiments were performed in the absence or presence of zinc(II) (trifluoromethanesulfonate salt). Unmetallated PSVue™380 (PSVue™380*) was also included for reference.
All glassware was treated with 0.1 M HCl overnight, rinsed three times with MilliQ water, and oven dried. […] The sensor-zinc solutions were then combined with PA vesicles, prepared as described above, incubated as described above and the fluorescence emission intensity was then measured as described above.
In an effort to eliminate this possibility, all glassware was acid-treated and all buffers were chelex-treated to remove any metals, and the screens were repeated with PA vesicles. For these experiments, original non-normalized FIexc values were analyzed.

[12] = system: WT and mutant E. coli strains; experiment: Bacteria mutant strain knockout fluorimetry, E. coli; type: cell-based; details: sensor 10 μM; 10^8 CFUs/mL
From the text: (§4) Fluorescence intensities were used to calculate the excimer emission in response to bacterial strains. Measurements were averaged over two triplicates.

[13] = system: WT and mutant B. subtilis strains; experiment: Bacteria mutant strain knockout fluorimetry, B. subtilis; type: cell-based; details: sensor 10 μM; 10^8 CFUs/mL
From the text: as §4

[14] = system: camptothecin treated MOLM-13 cells; experiment: Apoptosis detection by flow cytometry; type: cell-based; details: camptothecin 10 μM, 7 hrs; I-3 50 μM, PSVue™380 90.9 μM
Experimental: MOLM-13 cells were cultured in Roswell Park Memorial Institute (RPMI)-1640 Medium supplemented with 10% FCS and 1% antibiotic/antimycotic (Gibco, cat. 15240062).
MOLM-13 cells were cultured to a density of 5.0×10^5 cells/mL in regular media and transferred to 6-well tissue culture treated plates (1.0×10^6 cells/well). Treated Cells. Camptothecin (100 μL of 210 μM camptothecin in media) was added to a final concentration of 10 μM (1% DMSO final). Untreated Cells. DMSO Vehicle (100 μL DMSO in media) was added (1% DMSO final). All cells were then incubated at 37° C. for 7 hrs. […] Cell samples were then treated simultaneously with either 1) exemplary compound I-3 (in HEPES buffer, final concentration of 50 μM), and propidium iodide (0.02 μg/μL) or 2) PSVue™380 (in HEPES buffer, final concentration of 90.9 μM as previously reported^39) and propidium iodide (0.02 μg/μL). Samples were then incubated for 15 min away from light at 37° C. and were then analyzed by flow cytometry (CytoFLEX S, BeckmanCoulter) using the near UV laser (exc: 375 nm, emi: 450/45 nm) and blue laser (exc: 488 nm, emi: 585/42 nm). Gates were set off of single stain samples.

[15] = 33% CL vesicles, 20 μM vesicles
[16] = CL vesicles (50%), 5 μM vesicles
[17] = CL vesicles (50%), 20 μM vesicles
[18] = 25% PS vesicles, 20 μM vesicles
[19] = 75% PS vesicles, 20 μM vesicles
[20] = PS vesicles (50%), 5 μM vesicles
[21] = PS vesicles (50%), 20 μM vesicles

Compound	ΔΔFI ([1]; 5 μM vesicles)	ΔΔFI ([1]; 20 μM vesicles)	ΔΔFI ([2]; 5 μM vesicles)	ΔΔFI ([2]; 20 μM vesicles)	ΔΔFI ([3]; 33% CL vesicles, 5 μM vesicles)	ΔΔFI [3, 15]	ΔΔFI [3, 16]	ΔΔFI [3, 17]	ΔΔFI ([4]; 5% PS vesicles, 5 μM vesicles)	ΔΔFI ([4]; 5% PS vesicles, 20 μM vesicles)	ΔΔFI ([4]; 25% PS vesicles, 5 μM vesicles)	ΔΔFI [4, 18]	ΔΔFI ([5]; 5 μM vesicles)	ΔΔFI ([5]; 20 μM vesicles)	detection of Gram-positive bacteria with a fluorometer in bulk solution [9]	ΔΔFI ([11]; 75% PS vesicles, 5 μM vesicles)	ΔΔFI [11, 19]	ΔΔFI [11, 20]	ΔΔFI [11, 21]	further results
c1cc2ccc3ccc(CN4CCNCCNCCNCC4)c4ccc(c1)c2c34 [I-1]	1	1	2.6	5.4	2.8	6.6	3.3	10.6	1.3	2.2	1.5	2.9	2.9	9.5	can detect Gram-positive bacteria	3.3	9.4	2.6	6.6	linear response, upper vesicle concentration for PA ([5]; 25 μM sensor): 50 µM; ΔFI with PA vesicles ([5]; 50 μM PA vesicle concentration, sensor 25 μM): 20; linear response, vesicle concentration range ([6]; 25 μM sensor): 2 to 40 µM; ΔFIexc for all negatively charged vesicles ([6]; sensor 25 μM, vesicles up to 200 μM, λex/em 350/476 nm): ≥ 5; ΔFIexc for zwitterionic vesicles [7]: ~1; sensing of increasing amounts of E. coli (ΔFI, ΔΔFI) [8]: capable of sensing increasing amounts of bacteria; detection of bacteria using a flow cytometer [10]: suitable for the detection of bacteria
c1cc2ccc3ccc(CCCCN4CCCNCCNCCCNCC4)c4ccc(c1)c2c34 [II-4]	–	–	–	–	–	–	–	–	–	–	–	–	–	–	–	–	–	–	–	FIexc response to increasing PA vesicle concentrations, unmetallated (PA vesicles; acid-treated glassware, chelex-treated buffers, non-normalized FIexc): comparable responses; ability to detect PA vesicles in the absence of Zn^2+ (ΔFI) (PA vesicles; unmetallated sensors, PA vesicles 0-200 μM): retained their ability to detect PA; fluorescence fold of mutant E. coli strains compared to WT [12]: general decrease in fluorescence fold intensity; fluorescence fold of mutant B. subtilis strains compared to WT [13]: no changes
c1cc2ccc3ccc(CN4CCCNCCNCCCNCC4)c4ccc(c1)c2c34 [I-3]	1	1	2.4	6.2	2.4	6	4.1	10.2	1.8	3.5	2.2	5.3	7.7	23.2	can detect Gram-positive bacteria	6.5	15.6	3.5	9.8	detection of PC vesicles containing 5 and 25% PS ([4]; 5 and 25% PS, corresponding to 2.5 and 12.5% of PS exposed to solution): efficiently detected; sensing PA compared to PSVue™380 ([5]; Table 1 comparison): superior; ΔΔFI for PA vesicles (FIG. 4) ([5]; sensor 25 μM, vesicles 0-200 μM): ~25; detection of early apoptotic cells (propidium iodide co-stain) [14]: detects a population of cells, undetected by the dead cell stain propidium iodide; sensitivity compared to PSVue™380, 5 μM PS vesicles ([11]; 5 μM PS vesicles): comparable
